Reference: the supplement of paper PMC11208160

experiment: recombinant barcode read abundance after kanamycin selection (control-corrected) (log10(CPM+1)); higher = more efficient recombination; sequences stand for … in AGTGCAGAGAAAATCGGCCAGTTTTCTCTGCCTGCAGTCCGCATGCCGT…AGATTTATGCAGCGGACTGCCTTTCTCCCAAAGTGATAAACCGGACAGTATCATGGACCGGTTTTCCCGGTAATCCGTATTTGCAAGGTTGGTTTCACT; site = the 11-nt target
In short: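 Recombination efficiency was calculated from barcode counts at recombinant junctions, normalized to counts per million, averaged and corrected by the control. Each value is given as log10(CPM+1). The constructs were Gibson-cloned oligos (promoter, target, barcode, J23119-driven first 104 bridge RNA bases) in a vector with the remaining 73 bp and a T7-inducible recombinase, co-electroporated into E. coli with a donor plasmid and plated in duplicate on chloramphenicol/ampicillin LB agar (control) or chloramphenicol/ampicillin/kanamycin with 0.1 mM IPTG.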
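Also: IS621 recombinase and bridge RNA in Escherichia coli cells.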

In order of rising “recombinant barcode read abundance (log10)” value:
1. TGGAGCACTTGGGTTCTAACCTGTTGCCT (site TGGAACACTAG)  0
2. TGTAGAGCTTGGGTTCTAACCTGTTGCCG (site TGTGGAGCTCG)  0
3. TGTCAACCTTGGGTTCTAACCTGTTGCCT (site TGTCAATCTAG)  0
4. TGTCCTGCTTGGGTTCTAACCTGTTGCCT (site AGTCCTGCTAG)  0
5. TGGGACTCTTGGGTTCTAACCTGTTGCCT (site TGCGACTCTAG)  0.00712
6. TGTATAGCTTGGGTTCTAACCTGTTGCTA (site GGTTTAGCTTA)  0.00884
7. TGTAGTCCTTGGGTTCTAACCTGTTGCTT (site TGTAGTCCTAT)  0.0117
8. TGTAAGACTTGGGTTCTAACCTGTTGCTG (site TGTAAGGCTAA)  0.015
9. TGGATTGCTTGGGTTCTAACCTGTTGCCT (site TGGATTCCTAG)  0.0162
10. TGGACGACTTGGGTTCTAACCTGTTGCTT (site GATCGAGCTCT)  0.0173
11. TGGACGCCTTGGGTTCTAACCTGTTGCCT (site TGGACGTCTAG)  0.0267
12. TGTATAGCTTGGGTTCTAACCTGTTGCTA (site TGTATAGCTTA)  0.0299
13. TGGCGTCCTTGGGTTCTAACCTGTTGCCT (site TGGAGTCCTAG)  0.0306
14. TGGTGTACTTGGGTTCTAACCTGTTGCCT (site TGGAGTACTAG)  0.0346
15. TGGAGCCCTTGGGTTCTAACCTGTTGCAA (site TGGAGCCCTCT)  0.0367
16. TGGCGTCCTTGGGTTCTAACCTGTTGCCT (site TGGGGTCCTAG)  0.0381
17. TGGATGCCTTGGGTTCTAACCTGTTGCCT (site TGAATGACTAG)  0.0485
18. TGTAGTCCTTGGGTTCTAACCTGTTGCTT (site TGTAGTCCTAA)  0.0506
19. TGGAGCCCTTGGGTTCTAACCTGTTGCAT (site TGGAGCCCTGT)  0.0522
20. TGGAGCCCTTGGGTTCTAACCTGTTGCAT (site TGGAGCCCTCT)  0.053
21. TGTAAGACTTGGGTTCTAACCTGTTGCAG (site GAACGCTCTAA)  0.0634
22. TGGAGCACTTGGGTTCTAACCTGTTGCCT (site TGGATCACTAG)  0.0861
23. TGTCGATCTTGGGTTCTAACCTGTTGCCT (site TGTCAATCTAC)  0.0889
24. TGGAGCCCTTGGGTTCTAACCTGTTGCAA (site TGGAGCCCTAT)  0.0946
25. TGGGGTACTTGGGTTCTAACCTGTTGCCT (site TGGCGTACTAG)  0.097
26. TGGAGCACTTGGGTTCTAACCTGTTGCCT (site TGGACCACTAG)  0.107
27. TGGGACTCTTGGGTTCTAACCTGTTGCCT (site TGTGACTCTAG)  0.108
28. TGGTGCCCTTGGGTTCTAACCTGTTGCGG (site TGCTTCCCTCC)  0.109
29. TGTCCTGCTTGGGTTCTAACCTGTTGCCT (site GGTCCTGCTAG)  0.11
30. TGCTTCCCTTGGGTTCTAACCTGTTGCGG (site TGGTGCCCTCC)  0.114
31. TGGCGTCCTTGGGTTCTAACCTGTTGCCT (site TGGTGTCCTAG)  0.116
32. TGTCAACCTTGGGTTCTAACCTGTTGCCT (site TGTCAAGCTAG)  0.12
33. TGTCTATCTTGGGTTCTAACCTGTTGCCT (site TGTCTACCTAG)  0.123
34. TGGCACCCTTGGGTTCTAACCTGTTGCGG (site TGGAACCCTCC)  0.129
35. TGGGGTACTTGGGTTCTAACCTGTTGCCT (site TGGAGTACTAG)  0.141
36. TGGTGTACTTGGGTTCTAACCTGTTGCCT (site TGGGGTACTAG)  0.143
37. TGGAGCCCTTGGGTTCTAACCTGTTGCAT (site TGGAGCCCTTT)  0.15
38. TGGTACGCTTGGGTTCTAACCTGTTGCCT (site TGGTGCGCTAG)  0.15
39. TGTAGATCTTGGGTTCTAACCTGTTGCAT (site TGTTGACCTAT)  0.15
40. TGTAGATCTTGGGTTCTAACCTGTTGCAT (site TGTAGATCTAT)  0.152
41. TGGAGCCCTTGGGTTCTAACCTGTTGCAA (site TGGAGCCCTTT)  0.155
42. TGTCATGCTTGGGTTCTAACCTGTTGCGT (site TGTCATGCTAC)  0.163
43. TGTCCTGCTTGGGTTCTAACCTGTTGCCT (site CGTCCTGCTAG)  0.167
44. TGGGCACCTTGGGTTCTAACCTGTTGCTT (site GGGGCACCTTA)  0.175
45. TGGCACTCTTGGGTTCTAACCTGTTGCTT (site AGGCACTCTCA)  0.177
46. TGGGGTACTTGGGTTCTAACCTGTTGCCT (site TGGTGTACTAG)  0.177
47. TGTAGTCCTTGGGTTCTAACCTGTTGCTT (site TGTAGTCCTAG)  0.187
48. TGTCTAGCTTGGGTTCTAACCTGTTGCGG (site CCAAATCCTAT)  0.208
49. TGGAGCCCTTGGGTTCTAACCTGTTGCAT (site TGGAGCCCTAT)  0.211
50. TGTCTGGCTTGGGTTCTAACCTGTTGCCT (site AGTCTGGCTAG)  0.215
51. TGGTACGCTTGGGTTCTAACCTGTTGCCT (site TGGTCCGCTAG)  0.235
52. TGTCATGCTTGGGTTCTAACCTGTTGCGT (site CTCACACCTCT)  0.238
53. TGGTACGCTTGGGTTCTAACCTGTTGCCT (site TGGTTCGCTAG)  0.24
54. TGTAGAGCTTGGGTTCTAACCTGTTGCCG (site TGTAGAGCTCG)  0.243
55. TGGACGCCTTGGGTTCTAACCTGTTGCCT (site TGGACGCCTAG)  0.252
56. TGTAGAGCTTGGGTTCTAACCTGTTGCCG (site TGTTGAGCTCG)  0.258
57. TGGAGCCCTTGGGTTCTAACCTGTTGCAA (site TGGAGCCCTGT)  0.263
58. TGTAGTCCTTGGGTTCTAACCTGTTGCTT (site TGTAGTCCTAC)  0.264
59. TGGGTCCCTTGGGTTCTAACCTGTTGCTT (site TGAGTCCCTTA)  0.272
60. TGTCAACCTTGGGTTCTAACCTGTTGCCT (site TGTCAAACTAG)  0.346
61. TGTCCTGCTTGGGTTCTAACCTGTTGCCT (site TGTCCTGCTAG)  0.36
62. TGGTGTACTTGGGTTCTAACCTGTTGCCT (site TGGCGTACTAG)  0.426
63. TGTCTATCTTGGGTTCTAACCTGTTGCCT (site TGTCTATCTAG)  0.429
64. TGGCCAACTTGGGTTCTAACCTGTTGCGT (site TAGTCAACTAC)  0.434
65. TGGTGTACTTGGGTTCTAACCTGTTGCCT (site TGGTGTACTAG)  0.461
66. TGTAGAGCTTGGGTTCTAACCTGTTGCCG (site TGTCGAGCTCG)  0.483
67. TGTAAGACTTGGGTTCTAACCTGTTGCTG (site TGTAAGACTCA)  0.505
68. TGGACGACTTGGGTTCTAACCTGTTGCTT (site TGGACGACTAA)  0.592
69. TGTAAGACTTGGGTTCTAACCTGTTGCAG (site TGTAAGACTCT)  0.644
70. TGTCTAGCTTGGGTTCTAACCTGTTGCGG (site TGTCTAGCTCC)  0.695
71. TGGATTGCTTGGGTTCTAACCTGTTGCCT (site TGGATTGCTAG)  0.74
72. TGGATGCCTTGGGTTCTAACCTGTTGCCT (site TGGATGCCTAG)  0.884
73. TGTCGATCTTGGGTTCTAACCTGTTGCCT (site TGTCGATCTAG)  0.94
74. TGGCGTCCTTGGGTTCTAACCTGTTGCCT (site TGGCGTCCTAG)  0.963
75. TGTCAACCTTGGGTTCTAACCTGTTGCCT (site TGTCAACCTAG)  0.998
76. TGGCACTCTTGGGTTCTAACCTGTTGCTT (site TGGCACTCTAA)  1.02
77. TGGAGCACTTGGGTTCTAACCTGTTGCCT (site TGGAGCACTAG)  1.11
78. TGGGGTACTTGGGTTCTAACCTGTTGCCT (site TGGGGTACTAG)  1.11
79. TGGGCACCTTGGGTTCTAACCTGTTGCTT (site TGGGCACCTAA)  1.37
80. TGGTACGCTTGGGTTCTAACCTGTTGCCT (site TGGTACGCTAG)  1.45
81. TGGTGCCCTTGGGTTCTAACCTGTTGCGG (site TGGTGCCCTCC)  1.45
82. TGGCCAACTTGGGTTCTAACCTGTTGCGT (site TGGCCAACTAC)  1.84
83. TGGGTCCCTTGGGTTCTAACCTGTTGCTT (site TGGGTCCCTAA)  2.1
84. TGGCACCCTTGGGTTCTAACCTGTTGCGG (site TGGCACCCTCC)  2.42
85. TGGGACTCTTGGGTTCTAACCTGTTGCCT (site TGAGACTCTAG)  2.44
86. TGGGACTCTTGGGTTCTAACCTGTTGCCT (site TGGGACTCTAG)  2.64
